Where a name gives a salt, the structure may show the parent alone.
Test system: tumor cells derived from patients who were responsive to treatment with irinotecan
Test: xenograft of patient-derived tumor cells in SCID mice treated with irinotecan
Assay type: in vivo
Conditions: SCID mice with established xenograft tumors, injected with 200 mg/kg of irinotecan
Procedure: Positive expression also was evaluated using a xenograft array. SCID mice were injected with tumor cells derived from patients who were responsive to treatment with irinotecan, and the tumors were allowed to grow in the mice. Once the tumors were established, the mice were injected with 200 mg/kg of irinotecan, and the mice were monitored to observe responsiveness to the drug. […] Prior to treatment with the drug, samples of the tumors were extracted from the mice and used to make a TMA.

CCc1c2c(nc3ccc(OC(=O)N4CCC(N5CCCCC5)CC4)cc13)-c1cc3c(c(=O)n1C2)COC(=O)[C@]3(O)CC [irinotecan, Irinotecan hydrochloride]
responsiveness to the drug: effect on tumors formed in the SCID mice: reduced or eliminated

— patent US20090047684A1, “Gene and protein expression profiles associated with the therapeutic efficacy of irinotecan” (Nuclea Biomarkers, LLC, priority 2006, published 2009)
